Measured values taken from patent US20230160016A1, “METHODS OF SELECTING A TREATMENT FOR CANCER PATIENTS” (NOVARTIS AG, priority 2017, published 2023).

Tested on: HR-positive, HER2-negative, advanced breast cancer
Experiment: MONALEESA-2: PFS subgroup analysis by 2-gene signature (CDKN2A and E2F3) score
Assay type: in vivo, human
Details: for Events: PFS events, median cut-off, both arms plus letrozole; for HR Across ARMCD: PFS, ribociclib arm vs PBO arm, both plus letrozole
Experimental: The patient population consisted of postmenopausal women with HR-positive, HER2-negative, advanced breast cancer, who had previously received no prior therapy for their advanced breast cancer.
Arm A: Ribociclib (600 mg once daily, days 1-21 of a 28-day cycle)+letrozole (2.5 mg once daily, days 1-28 of a 28-day cycle).
Arm B: Placebo (once daily, days 1-21 of a 28-day cycle)+letrozole (2.5 mg once daily days 1-28 of a 28-day cycle continuously).
PFS was defined as the time from the date of randomization to the date of first documented disease progression or death due to any cause. Discontinuation for non-RECIST progression was not counted as a PFS event. If a patient started other anti-neoplastic therapy or had two or more missing tumour assessments, PFS was censored at the last adequate tumour assessment, regardless of subsequent events.
A Cox Proportional Hazards model was fitted with treatment, liver/lung metastasis which is the study stratification factor, effects of the 16 genes, including CCNA2, CCND1, CCND2, CCND3, CCNE1, CDK2, CDK4, CDK6, CDKN1A, CDKN2A, CDKN2B, CDKN2C, E2F1, E2F3, RB1, and TFDP1, and gene by treatment interactions. […] A set of genes (CDKN2A and E2F3) with significant gene by treatment interactions in the model were identified through backward model selection. Signature scores of all samples were computed as the weighted sum of the gene expression values, where weights were the regression coefficients of respective gene by treatment interactions in the Cox Proportional Hazards model. Patients were classified into high and low subgroups using median signature score as the cut-off. Median PFS and hazard ratio together with 95% confidence intervals were computed for each patient subgroup.
Result: Using backward model selection, a 2-gene signature (CDKN2A and E2F3) was derived. FIG. 1Q and table 4 are subgroup analysis results, high- and low-gene signature expression groups are defined by median signature score as cut-off.

Ribociclib
Events (high 2-gene signature (CDKN2A and E2F3) score): 30
Events (low 2-gene signature (CDKN2A and E2F3) score): 28
HR Across ARMCD (high 2-gene signature score): 0.73 (0.46-1.16)
HR Across ARMCD (low 2-gene signature score): 0.42 (0.26-0.66)
